This note sets out measurements from patent US20160272617A1, “SUBSTITUTED PHENYLALANINE DERIVATIVES” (BAYER PHARMA AKTIENGESELLSCHAFT, priority 2013, published 2016).

In experiment [1] the target is T1, human factor XIa (Homo sapiens, UniProt P03951).
T1 construct: purchased Kordia
Nature of the experiment: Measurement of FXIa inhibition (fluorogenic peptide substrate Boc-Glu(OBzl)-Ala-Arg-AMC). It counts as biochemical. Particulars: factor XIa from Kordia, 15 min preincubation, 30 min at 22° C., fluorescence. Summed up:
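Released AMC fluorescence (360/460 nm) read after 30 min at 22 °C. The reaction was started with Boc-Glu(OBzl)-Ala-Arg-AMC (10 μM stock) after a 15 min preincubation of the enzyme (0.45 nM stock) with compound (final 50 μM to 0.00013 μM).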

Experiment [2] deals with human and animal plasma. The experiment in a line: Determination of anticoagulatory activity: activated partial thromboplastin time (aPTT) in plasma. The conditions noted are these: concentration of test substance which brings about a 1.5-fold extension of the aPTT; plasma species not given. In short, it runs like this:
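Citrated plasma (1:9, 0.11 M citrate; 4000 g, 15 min) from human or animal blood incubated with test compound and cephalin/kaolin PTT reagent for 3 min at 37° C.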

For experiment [3], the target named is T2, human plasmin (Homo sapiens, UniProt P00747).
T2 construct: purchased Kordia
T2 sequence (P00747 581-810 limits assumed): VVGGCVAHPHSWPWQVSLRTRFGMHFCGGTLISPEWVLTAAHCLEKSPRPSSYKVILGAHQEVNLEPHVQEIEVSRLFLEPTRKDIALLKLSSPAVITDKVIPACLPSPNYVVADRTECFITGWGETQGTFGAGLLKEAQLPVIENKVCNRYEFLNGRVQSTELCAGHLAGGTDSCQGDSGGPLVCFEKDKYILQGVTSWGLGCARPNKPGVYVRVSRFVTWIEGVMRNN
T2 sequence (P00747 97-580 partner limits assumed): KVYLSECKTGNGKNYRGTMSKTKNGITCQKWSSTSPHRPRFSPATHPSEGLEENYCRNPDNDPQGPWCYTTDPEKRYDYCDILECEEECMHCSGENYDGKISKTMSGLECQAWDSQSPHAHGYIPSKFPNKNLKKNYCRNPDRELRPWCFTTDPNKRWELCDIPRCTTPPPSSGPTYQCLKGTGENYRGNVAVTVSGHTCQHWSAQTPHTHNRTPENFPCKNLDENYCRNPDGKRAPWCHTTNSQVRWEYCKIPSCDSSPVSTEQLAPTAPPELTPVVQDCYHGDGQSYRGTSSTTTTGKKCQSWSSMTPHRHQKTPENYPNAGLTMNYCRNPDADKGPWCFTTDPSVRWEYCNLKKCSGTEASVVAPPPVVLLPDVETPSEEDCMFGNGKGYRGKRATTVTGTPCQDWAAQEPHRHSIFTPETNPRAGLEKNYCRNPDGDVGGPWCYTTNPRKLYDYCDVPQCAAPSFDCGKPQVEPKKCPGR
The experiment in a line: Measurement of plasmin inhibition (fluorogenic peptide substrate MeOSuc-Ala-Phe-Lys-AMC). The conditions noted are these: plasmin from Kordia, 15 min preincubation, 30 min at 22° C., fluorescence. Type of experiment: biochemical. The protocol:
The plasmin inhibition of the inventive substances is determined using a biochemical test system which utilizes the reaction of a peptidic plasmin substrate to determine the enzymatic activity of human plasmin. Here, plasmin cleaves from the peptic plasmin substrate the C-terminal aminomethylcoumarin (AMC), the fluorescence of which is measured. The determinations are carried out in microtitre plates.
Test substances are dissolved in dimethyl sulphoxide and serially diluted in dimethyl sulphoxide (3000 μM to 0.0078 μM; resulting final concentrations in the test: 50 μM to 0.00013 μM). In each case 1 μl of the diluted substance solutions are placed into the wells of white microtitre plates from Greiner (384 wells). Subsequently, the following are added successively: 20 μl of assay buffer (50 mmol/Tris buffer pH 7.4; 100 mmol/l sodium chloride; 5 mmol/calcium chloride; 0.1% bovine serum albumin) and 20 μl of plasmin from Kordia (0.3 μg/ml in assay buffer) are then added successively. After 15 min of incubation, the enzyme reaction is started by addition of 20 μl of the plasmin substrate MeOSuc-Ala-Phe-Lys-AMC dissolved in assay buffer (150 μM in assay buffer) from Bachem, the mixture is incubated at room temperature (22° C.) for 30 min and fluorescence is then measured (excitation: 360 nm, emission: 460 nm). The measured emissions of the test batches with test substance are compared to those of control batches without test substance (only dimethyl sulphoxide instead of test substance in dimethyl sulphoxide), and the IC50 values are calculated from the concentration/activity relationships.

Where a name gives a salt, the structure may show the parent alone.

T1 sequence (P03951 388-625 limits assumed): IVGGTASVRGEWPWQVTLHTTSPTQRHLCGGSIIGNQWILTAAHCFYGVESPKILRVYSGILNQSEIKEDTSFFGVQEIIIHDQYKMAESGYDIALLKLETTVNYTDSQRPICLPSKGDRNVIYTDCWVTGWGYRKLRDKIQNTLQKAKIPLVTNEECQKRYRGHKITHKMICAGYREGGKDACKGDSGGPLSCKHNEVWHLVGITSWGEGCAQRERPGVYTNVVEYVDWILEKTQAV
T1 sequence (P03951 19-387 partner limits assumed): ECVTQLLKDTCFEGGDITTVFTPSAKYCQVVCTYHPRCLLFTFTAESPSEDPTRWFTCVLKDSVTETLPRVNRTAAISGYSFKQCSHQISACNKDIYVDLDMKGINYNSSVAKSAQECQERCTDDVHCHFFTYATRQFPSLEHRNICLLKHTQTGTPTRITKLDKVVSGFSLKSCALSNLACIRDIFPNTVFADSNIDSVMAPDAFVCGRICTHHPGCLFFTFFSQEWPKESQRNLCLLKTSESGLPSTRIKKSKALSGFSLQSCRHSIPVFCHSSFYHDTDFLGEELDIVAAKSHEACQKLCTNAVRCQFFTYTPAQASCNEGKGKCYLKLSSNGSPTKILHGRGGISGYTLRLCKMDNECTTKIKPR

With `Cc1cc(C(=O)NC(C)CO)ccc1-c1ccc(C[C@H](NC(=O)[C@H]2CC[C@H](CN)CC2)C(=O)Nc2ccc(-c3nnn[nH]3)cc2)cc1` (stereo partly drawn) [Example 139, 4′-[(2S)-2-({[trans-4-(Aminomethyl)cyclohexyl]carbonyl}amino)-3-oxo-3-{[4-(1H-tetrazol-5-yl)phenyl]amino}propyl]-N-(1-hydroxypropan-2-yl)-2-methylbiphenyl-4-carboxamide hydrochloride], the IC50 (usually the concentration that inhibits the measured activity by half) was 4.1 nM in experiment [1] and 13 nM in experiment [3]. In addition, the “aPTT” value in experiment [2] was determined as 0.17 µmol/L.

Regarding `Cc1cc(C(=O)NC(C)C)ccc1-c1ccc(C[C@H](NC(=O)[C@H]2CC[C@H](CN)CC2)C(=O)Nc2ccc3c(c2)[nH]c(=O)n3C)cc1` [Example 140, 4′-{(2S)-2-({[trans-4-(Aminomethyl)cyclohexyl]carbonyl}amino)-3-[(1-methyl-2-oxo-2,3-dihydro-1H-benzimidazol-5-yl)amino]-3-oxopropyl}-N-isopropyl-2-methylbiphenyl-4-carboxamide hydrochloride], the IC50 in experiment [1] turned out to be 13 nM; in experiment [3], 1.5 nM. Moreover, the “aPTT” value in experiment [2] is 0.25 µmol/L.

Regarding `Cc1cc(C(=O)NC2CC2)ccc1-c1ccc(C[C@H](NC(=O)[C@H]2CC[C@H](CN)CC2)C(=O)Nc2ccc3[nH]nnc3c2)cc1` [Example 141, 4′-[(2S)-2-({[trans-4-(Aminomethyl)cyclohexyl]carbonyl}amino)-3-(1H-benzotriazol-5-ylamino)-3-oxopropyl]-N-cyclopropyl-2-methylbiphenyl-4-carboxamide hydrochloride], the IC50 in experiment [1] worked out at 3.9 nM; in experiment [3] it was 1.6 nM. For the same compound, the “aPTT” value in experiment [2] turned out to be 0.30 µmol/L.

Take `Cc1cc(C(=O)NC(C)C)ccc1-c1ccc(C[C@H](NC(=O)[C@H]2CC[C@H](CN)CC2)C(=O)Nc2ccc3nc[nH]c3c2)cc1` [Example 142, 4′-[(2S)-2-({[trans-4-(Aminomethyl)cyclohexyl]carbonyl}amino)-3-(1H-benzimidazol-6-ylamino)-3-oxopropyl]-N-isopropyl-2-methylbiphenyl-4-carboxamide hydrochloride]: the IC50 in experiment [1] amounted to 15 nM; in experiment [3] it was 2.1 nM. Further, the “aPTT” value in experiment [2] was 0.33 µmol/L.

For `Cc1cc(C(=O)NC(C)C)ccc1-c1ccc(C[C@H](NC(=O)[C@H]2CC[C@H](CN)CC2)C(=O)Nc2ccc(-c3nnc(CCC(=O)O)[nH]3)cc2)cc1` [Example 157, 3-{5-[4-({(2S)-2-({[trans-4-(Aminomethyl)cyclohexyl]carbonyl}amino)-3-[4′-(isopropyl-carbamoyl)-2′-methylbiphenyl-4-yl]propanoyl}amino)phenyl]-4H-1,2,4-triazol-3-yl}propanoic acid hydrochloride], the results for the 50% inhibitory concentration (IC50) in experiment [1] and in experiment [3] were 3.6 nM and 1.7 nM, respectively. Further, in experiment [2], the “aPTT” value turned out to be 0.33 µmol/L.

`Cc1cc(C(=O)NC(C)C)ccc1-c1ccc(C[C@H](NC(=O)[C@H]2CC[C@H](CN)CC2)C(=O)Nc2cc(Cl)c3[nH]c(=O)[nH]c3c2)cc1` [Example 158, 4′-{(2S)-2-({[trans-4-(Aminomethyl)cyclohexyl]carbonyl}amino)-3-[(7-chloro-2-oxo-2,3-dihydro-1H-benzimidazol-5-yl)amino]-3-oxopropyl}-N-isopropyl-2-methylbiphenyl-4-carboxamide hydrochloride]: the figures for the 50% inhibitory concentration (IC50) in experiment [1] and in experiment [3] were 3.8 nM and 0.43 nM, respectively. Further, in experiment [2], the “aPTT” value was found to be 0.1 µmol/L.

Consider `Cc1cc(C(=O)NC(C)C)ccc1-c1ccc(C[C@H](NC(=O)[C@H]2CC[C@H](CN)CC2)C(=O)Nc2cc(Cl)c3cn[nH]c3c2)cc1` [Example 159, 4′-{(2S)-2-({[trans-4-(Aminomethyl)cyclohexyl]carbonyl}amino)-3-[(4-chloro-1H-indazol-6-yl)amino]-3-oxopropyl}-N-isopropyl-2-methylbiphenyl-4-carboxamide hydrochloride], for which the half-maximal inhibitory concentration (IC50) in experiment [1] amounted to 3.5 nM; in experiment [3], 0.32 nM. Also, the “aPTT” value in experiment [2] is 0.36 µmol/L.

On to `Cc1cc(C(=O)NC2CCC2)ccc1-c1ccc(C[C@H](NC(=O)[C@H]2CC[C@H](CN)CC2)C(=O)Nc2ccc3c(=O)[nH][nH]c3c2)cc1` [Example 162, 4′-{(2S)-2-({[trans-4-(Aminomethyl)cyclohexyl]carbonyl}amino)-3-oxo-3-[(3-oxo-2,3-dihydro-1H-indazol-6-yl)amino]propyl}-N-cyclobutyl-2-methylbiphenyl-4-carboxamide hydrochloride], for which the figures for the IC50 in experiment [1] and in experiment [3] were 1.8 nM and 1.1 nM, respectively. In addition, in experiment [2], the “aPTT” value was determined as 0.15 µmol/L.

On to `Cc1cc(C(=O)N2CCC3CNC(=O)C32)ccc1-c1ccc(C[C@H](NC(=O)[C@H]2CC[C@H](CN)CC2)C(=O)Nc2ccc3cn[nH]c3c2)cc1` (stereo partly drawn) [Example 163, trans-4-(Aminomethyl)-N-[(2S)-1-(1H-indazol-6-ylamino)-3-{2′-methyl-4′-[(6-oxohexahydropyrrolo[3,4-b]pyrrol-1(2H)-yl)carbonyl]biphenyl-4-yl}-1-oxopropan-2-yl]cyclohexanecarboxamide hydrochloride], for which the IC50 in experiment [1] came out at 10 nM; in experiment [3], 8.8 nM. Moreover, the “aPTT” value in experiment [2] came out at 0.07 µmol/L.

For the compound `Cc1cc(C(=O)NC2CC(O)C2)ccc1-c1ccc(C[C@H](NC(=O)[C@H]2CC[C@H](CN)CC2)C(=O)Nc2ccc3cn[nH]c3c2)cc1` (stereo partly drawn) [Example 164, 4′-[(2S)-2-({[trans-4-(Aminomethyl)cyclohexyl]carbonyl}amino)-3-(1H-indazol-6-ylamino)-3-oxopropyl]-N-(3-hydroxycyclobutyl)-2-methylbiphenyl-4-carboxamide hydrochloride], the results for the IC50 in experiment [1] and in experiment [3] were 7.6 nM and 13 nM, respectively. Further, the “aPTT” value in experiment [2] was found to be 0.13 µmol/L.

In the case of `Cc1cc(C(=O)NC2CC2)ccc1-c1ccc(C[C@H](NC(=O)[C@H]2CC[C@H](CN)CC2)C(=O)Nc2ccc3cn[nH]c3c2)cc1` [Example 167, 4′-[(2S)-2-({[trans-4-(Aminomethyl)cyclohexyl]carbonyl}amino)-3-(1H-indazol-6-ylamino)-3-oxopropyl]-N-cyclopropyl-2-methylbiphenyl-4-carboxamide hydrochloride], the IC50 came to 6 nM in experiment [1] and 1.9 nM in experiment [3]. In experiment [2], the “aPTT” value was 0.12 µmol/L.
